Consider one substance from patent publication US20260284113A1, “COMPOSITIONS AND METHODS FOR TREATING PERIPHERAL VASCULAR DISEASE” (MAYO FOUNDATION FOR MEDICAL EDUCATION AND RESEARCH, priority 2022, published 2026).

This experiment relates to HUVECs. Kind of experiment: Matrigel tube formation assay. The format is cell-based, human. Conditions: HUVECs on Matrigel, six hours; PEP 2.5×10^11 vesicles/mL, VEGF 100 ng/ml. As for the experimental part:
96-well plates (Corning, Inc., Corning, NY) were pre-coated with MATRIGEL (Corning Life Sciences, Corning, NY) and allowed to solidify for one hour at 37° C. before cell seeding. GFP-tagged HUVECs (1×10^4 cells/well) were then added to individual wells in medium designated treatment. Images were acquired at time 0, one hour, three hours, and six hours post-treatment with an inverted microscope (DMI6000 B, Leica Microsystems GmbH, Wetzlar, Germany). All images were analyzed with Angiotool (Zudaire et al., 2011, PLoS One 6:e27385).

For VEGF, the “number of junctions per field” value was 59.75 and the “total length of branches per field” value was determined as 2459.59 pixels.
